# Measurements reported in article PMC6234229, “The role of loops B and C in determining the potentiation of GABAA receptors by midazolam” (Pharmacology Research & Perspectives, 2018).
# Columns and labels:
# Assay in all cases: Midazolam potentiation of EC10 GABA currents, whole-cell patch clamp, HEK293T
# Type in all cases: cell-based
# α1β2γ2 GABAA receptor = molecular target: T1, α1β2γ2 GABAA receptor (Homo sapiens, UniProt P14867+P18507+P47870)
# T1 construct: expressed in transfected cells; host or cells: HEK293T
# From the text: (§1) Human (Homo sapiens) GABAA subunits (α1‐6, β2, γ2s) were subcloned into pcDNA3.1+ vectors with a cytomegalovirus (CMV) promoter. The hβ2 and hα3 sequences were humanized rat (Rattus norvegicus) cDNA with amino acid substitutions made to match the human protein sequence. The α1‐3, α5, β2, and γ2s subunits were a generous gift from Neil L. Harrison (Columbia University Medical Center, NY). The α4 subunit was obtained from GenScript (Piscataway, NJ), and the α6 subunit was a generous gift from Robert L. McDonald (Vanderbilt University, TN). All point mutations (listed in Figure 1C) were introduced using the QuikChange Lightening site‐directed mutagenesis kit (Agilent Technologies, Santa Clara, CA) according to the manufacturer's instructions and were confirmed by sequencing (Eurofins MWG Operon, Louisville, KY).
# (§2) Human embryonic kidney cells containing the SV40 T‐antigen (HEK293T) were acquired from American Type Culture Collection (ATCC®, Manassas, VA), catalogue number, CRL3216. HEK293T cells were maintained at 37°C and 5% CO2 in Eagle Minimum Essential Medium (MEM) supplemented with 5% fetal bovine serum (Atlanta Biologicals Inc., Flowery Branch, GA), 40 μM L‐glutamine, 100 U/mL penicillin and 0.1 mM streptomycin. Cells were passaged regularly when they reached 70% confluency using trypsin. Cells were not passaged more than 22 times. New cells were revived from frozen stocks at passage 2‐4. Cells used for in vitro electrophysiology experiments were grown on poly‐D‐lysine‐coated glass coverslips (No.2, VWR, Radnor, PA) and transfected with X‐tremeGENE (Roche Diagnostics, Indianapolis, IN) with the desired receptor subunit cDNAs at a 1:1:1 ratio to express αxβ2γ2s receptors (2 μg total cDNA) and with 0.5 μg green fluorescent protein (GFP) as an expression marker. The γ2s incorporation into receptors was tested with zinc inhibition assays regularly.24 Patch clamp experiments were performed on cells at 24‐72 hours post‐transfection. All experiments were performed at 22°C. Experiments consisted of at least five cells recorded per day from at least two transfections across 3‐4 days to control for cell health and transfection efficiency. At least three cells expressing wild‐type receptors were recorded on days that mutant receptors were tested to provide a time‐matched expression control. All reagents were purchased from Sigma‐Aldrich (St. Louis, MO) unless otherwise stated.
# (§3) Extracellular solution contained 161 mM NaCl, 3 mM KCl, 1 mM MgCl2, 1.5 mM CaCl2, 10 mM HEPES, and 6 mM D‐glucose, adjusted to pH 7.4 with NaOH (320‐330 mOsm). […] The perfusion system was controlled by protocols written in pClamp 9 (Molecular Devices, LLC., Sunnyvale, CA). Whole‐cell currents were recorded at ‐60 mV, filtered at 100 Hz and sampled at 200 Hz with a MultiClamp 700B amplifier (Molecular Devices, LLC) and DigiData 1322A (Molecular Devices, LLC) digitizer. […] Cells were recorded with the midazolam protocol no more than two times to avoid desensitization and incomplete washout or irreversible modulation.
# (§4) Recordings were analyzed using MATLAB (Math Works, Inc., Natick, MA). […] The maximum peak current, EC50 and Hill coefficient were estimated for assays from each cell. When Hill parameters are estimated from whole‐cell recordings, the changes in the parameters across receptor conditions can be ascribed to the following changes in receptor physiology. Changes in maximum current can be due to changes in the single‐channel conductance or the rate of desensitization. Changes in cell surface receptor expression can cause minor changes in maximum current, but are unlikely to occur in the time course of our experimental protocol. […] More often minor changes in the Hill coefficient are attributed to the altered homogeneity in the receptor population expressed by the HEK293T cell. For example, a shallower Hill coefficient could be caused by a shift in the population of receptors from mostly αβγ receptors to a combination of both αβ and αβγ receptors.
# [1] = molecular target: T2, α2(S205I)β2γ2 GABAA receptor (Homo sapiens, UniProt P18507+P47869+P47870, S233I)
# T2 construct: expressed in transfected cells; host or cells: HEK293T
# From the text: as §1, §2, §3, §4
# [2] = molecular target: T3, α2(T162P)β2γ2 GABAA receptor (Homo sapiens, UniProt P18507+P47869+P47870, T190P)
# T3 construct: expressed in transfected cells; host or cells: HEK293T
# From the text: as §1, §2, §3, §4
# [3] = molecular target: T4, α3(H126R)β2γ2 GABAA receptor (Homo sapiens, UniProt P18507+P34903+P47870, H154R)
# T4 construct: expressed in transfected cells; host or cells: HEK293T
# From the text: as §1, §2, §3, §4
# [4] = molecular target: T5, α5(H105R)β2γ2 GABAA receptor (Homo sapiens, UniProt P18507+P31644+P47870, H136R)
# T5 construct: expressed in transfected cells; host or cells: HEK293T
# From the text: as §1, §2, §3, §4
# α6β2γ2 GABAA receptor = molecular target: T6, α6β2γ2 GABAA receptor (Homo sapiens, UniProt P18507+P47870+Q16445); details: for Midazolam potentiation (%): α6β2γ2
# T6 construct: expressed in transfected cells; host or cells: HEK293T
# From the text: as §1, §2, §3, §4
# [5] = molecular target: α6(R100H)β2γ2 GABAA receptor (Homo sapiens, UniProt P18507+P47870+Q16445, R119H); design: expressed in transfected cells; host or cells: HEK293T
# From the text: as §1, §2, §3, §4
# T4 sequence (P34903 29-492 H154R): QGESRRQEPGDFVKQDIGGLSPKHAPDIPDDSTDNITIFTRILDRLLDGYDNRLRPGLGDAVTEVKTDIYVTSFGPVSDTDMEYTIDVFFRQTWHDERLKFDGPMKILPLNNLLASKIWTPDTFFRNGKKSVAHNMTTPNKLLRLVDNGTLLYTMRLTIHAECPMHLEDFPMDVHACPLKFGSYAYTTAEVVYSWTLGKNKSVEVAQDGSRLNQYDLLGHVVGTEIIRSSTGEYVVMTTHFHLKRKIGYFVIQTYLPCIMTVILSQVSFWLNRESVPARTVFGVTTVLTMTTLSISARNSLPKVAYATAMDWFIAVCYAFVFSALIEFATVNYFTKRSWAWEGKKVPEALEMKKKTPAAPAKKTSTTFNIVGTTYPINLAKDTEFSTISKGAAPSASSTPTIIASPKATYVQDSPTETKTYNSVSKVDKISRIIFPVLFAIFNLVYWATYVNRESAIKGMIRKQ
# T4 sequence (P47870 25-512 limits assumed): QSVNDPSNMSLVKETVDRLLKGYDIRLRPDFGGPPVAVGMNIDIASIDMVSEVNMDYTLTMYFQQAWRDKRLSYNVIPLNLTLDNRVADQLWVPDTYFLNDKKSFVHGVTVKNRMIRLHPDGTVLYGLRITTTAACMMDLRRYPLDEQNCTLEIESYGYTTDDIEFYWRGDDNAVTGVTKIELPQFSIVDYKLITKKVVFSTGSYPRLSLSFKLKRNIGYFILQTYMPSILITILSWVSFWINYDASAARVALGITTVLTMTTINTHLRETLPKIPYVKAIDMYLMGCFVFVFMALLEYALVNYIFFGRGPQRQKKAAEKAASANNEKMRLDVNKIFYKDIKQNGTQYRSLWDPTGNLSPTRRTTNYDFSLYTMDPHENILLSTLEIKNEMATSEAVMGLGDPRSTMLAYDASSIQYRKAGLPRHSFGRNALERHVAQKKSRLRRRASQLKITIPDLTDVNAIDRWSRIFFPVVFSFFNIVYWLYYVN
# T4 sequence (P18507 40-467 isoform P18507-1 limits assumed, stated change not applied): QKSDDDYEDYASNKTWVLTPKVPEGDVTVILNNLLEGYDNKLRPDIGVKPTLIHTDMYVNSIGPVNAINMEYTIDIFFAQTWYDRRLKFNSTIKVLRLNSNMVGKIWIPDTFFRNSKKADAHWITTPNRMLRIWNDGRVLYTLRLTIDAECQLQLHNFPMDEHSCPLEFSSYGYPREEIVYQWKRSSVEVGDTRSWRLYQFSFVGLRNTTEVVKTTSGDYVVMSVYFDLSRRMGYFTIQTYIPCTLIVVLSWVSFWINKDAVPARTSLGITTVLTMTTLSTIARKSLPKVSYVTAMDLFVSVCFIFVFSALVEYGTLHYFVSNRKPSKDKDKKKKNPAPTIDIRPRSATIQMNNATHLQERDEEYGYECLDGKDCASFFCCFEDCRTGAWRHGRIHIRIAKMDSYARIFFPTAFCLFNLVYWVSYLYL
# T5 sequence (P31644 32-462 H136R): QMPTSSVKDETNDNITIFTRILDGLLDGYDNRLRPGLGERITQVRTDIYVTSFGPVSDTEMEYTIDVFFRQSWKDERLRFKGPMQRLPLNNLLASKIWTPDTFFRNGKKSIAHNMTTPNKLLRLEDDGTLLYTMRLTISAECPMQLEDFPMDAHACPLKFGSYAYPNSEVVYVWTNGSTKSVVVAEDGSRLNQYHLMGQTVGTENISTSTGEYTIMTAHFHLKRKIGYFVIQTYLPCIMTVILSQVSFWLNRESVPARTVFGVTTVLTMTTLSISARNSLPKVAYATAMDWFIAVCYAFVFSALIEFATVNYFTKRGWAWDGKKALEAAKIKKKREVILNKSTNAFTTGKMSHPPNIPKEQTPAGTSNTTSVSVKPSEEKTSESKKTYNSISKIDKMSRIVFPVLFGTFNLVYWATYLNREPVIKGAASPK
# T5 sequence (P47870 26-474 isoform P47870-1 limits assumed, stated change not applied): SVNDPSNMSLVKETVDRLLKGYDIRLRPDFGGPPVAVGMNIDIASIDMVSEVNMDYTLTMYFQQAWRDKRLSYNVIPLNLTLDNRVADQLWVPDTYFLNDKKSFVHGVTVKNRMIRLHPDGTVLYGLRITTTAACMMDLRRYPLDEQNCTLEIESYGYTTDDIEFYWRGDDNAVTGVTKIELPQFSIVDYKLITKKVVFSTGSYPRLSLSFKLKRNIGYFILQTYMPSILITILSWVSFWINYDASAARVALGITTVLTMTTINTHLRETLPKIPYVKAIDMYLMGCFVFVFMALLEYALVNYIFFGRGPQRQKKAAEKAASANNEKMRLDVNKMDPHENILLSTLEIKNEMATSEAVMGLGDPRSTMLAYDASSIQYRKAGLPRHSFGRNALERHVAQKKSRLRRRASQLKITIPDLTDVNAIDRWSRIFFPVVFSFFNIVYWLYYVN
# T5 sequence (P18507 40-467 isoform P18507-1 limits assumed, stated change not applied): as the sequence (P18507 40-467 isoform P18507-1 limits assumed, stated change not applied) above
# T3 sequence (P47869 29-451 T190P): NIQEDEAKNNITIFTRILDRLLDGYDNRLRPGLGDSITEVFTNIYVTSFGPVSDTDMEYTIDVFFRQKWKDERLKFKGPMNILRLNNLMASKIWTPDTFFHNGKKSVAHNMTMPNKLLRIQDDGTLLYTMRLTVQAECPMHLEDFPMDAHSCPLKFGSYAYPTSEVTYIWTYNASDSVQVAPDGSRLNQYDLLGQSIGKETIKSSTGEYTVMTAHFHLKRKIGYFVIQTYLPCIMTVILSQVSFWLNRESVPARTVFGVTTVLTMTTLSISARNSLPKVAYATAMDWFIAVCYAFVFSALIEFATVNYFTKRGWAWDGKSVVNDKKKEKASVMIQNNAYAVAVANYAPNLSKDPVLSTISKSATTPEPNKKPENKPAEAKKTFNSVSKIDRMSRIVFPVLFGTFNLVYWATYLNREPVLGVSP
# T3 sequence (P47870 25-512 limits assumed): as the sequence (P47870 25-512 limits assumed) above
# T3 sequence (P18507 40-467 isoform P18507-1 limits assumed, stated change not applied): as the sequence (P18507 40-467 isoform P18507-1 limits assumed, stated change not applied) above
compound,measurement,setting,value
Cc1ncc2n1-c1ccc(Cl)cc1C(c1ccccc1F)=NC2 [midazolam],EC50,α1β2γ2 GABAA receptor,71.4 ± 5.8 nM
same,Midazolam potentiation (%),"α1β2γ2 GABAA receptor; 10 nM MDZ + EC10 GABA, α1β2γ2",22.06 ± 3.46%
same,Midazolam potentiation (%),"α1β2γ2 GABAA receptor; 50 nM MDZ + EC10 GABA, α1β2γ2",71.67 ± 6.40%
same,Midazolam potentiation (%),"α1β2γ2 GABAA receptor; 100 nM MDZ + EC10 GABA, α1β2γ2",145.94 ± 13.37%
same,Midazolam potentiation (%),"α1β2γ2 GABAA receptor; 500 nM MDZ + EC10 GABA, α1β2γ2",201.94 ± 16.80%
same,Midazolam potentiation (%),"α1β2γ2 GABAA receptor; 1000 nM MDZ + EC10 GABA, α1β2γ2",215.35 ± 26.71%
same,Max potentiation (%),"α1β2γ2 GABAA receptor; α1β2γ2, Hill fit, midazolam 10-1000 nM + EC10 GABA",203.0 ± 17.6%
same,Hill coefficient,"α1β2γ2 GABAA receptor; α1β2γ2, midazolam Hill fit",1.765 ± 0.165
same,EC50,[1],41.7 ± 4.99 nM
same,Midazolam potentiation (%),"[1]; 10 nM MDZ + EC10 GABA, α2(S205I)",21.06 ± 6.24%
same,Midazolam potentiation (%),"[1]; 50 nM MDZ + EC10 GABA, α2(S205I)",54.26 ± 10.25%
same,Midazolam potentiation (%),"[1]; 100 nM MDZ + EC10 GABA, α2(S205I)",86.20 ± 14.74%
same,Midazolam potentiation (%),"[1]; 500 nM MDZ + EC10 GABA, α2(S205I)",102.63 ± 19.49%
same,Midazolam potentiation (%),"[1]; 1000 nM MDZ + EC10 GABA, α2(S205I)",97.62 ± 20.12%
same,Max potentiation (%),"[1]; α2(S205I), Hill fit, midazolam 10-1000 nM + EC10 GABA",116.4 ± 23.0%
same,Hill coefficient,"[1]; α2(S205I), midazolam Hill fit",1.362 ± 0.140
same,EC50,[2],42 ± 2.86 nM
same,Midazolam potentiation (%),"[2]; 10 nM MDZ + EC10 GABA, α2(T162P)",26.45 ± 4.06%
same,Midazolam potentiation (%),"[2]; 50 nM MDZ + EC10 GABA, α2(T162P)",81.24 ± 9.43%
same,Midazolam potentiation (%),"[2]; 100 nM MDZ + EC10 GABA, α2(T162P)",129.24 ± 14.94%
same,Midazolam potentiation (%),"[2]; 500 nM MDZ + EC10 GABA, α2(T162P)",156.21 ± 15.70%
same,Midazolam potentiation (%),"[2]; 1000 nM MDZ + EC10 GABA, α2(T162P)",150.36 ± 15.00%
same,Max potentiation (%),"[2]; α2(T162P), Hill fit, midazolam 10-1000 nM + EC10 GABA",158.2 ± 15.8%
same,Hill coefficient,"[2]; α2(T162P), midazolam Hill fit",1.393 ± 0.073
same,responsiveness to midazolam potentiation,[3],abolished the ability of receptors to respond to midazolam potentiation
same,Midazolam potentiation (%),[3]; 10 nM MDZ + EC10 GABA,3.71 ± 1.31%
same,Midazolam potentiation (%),[3]; 50 nM MDZ + EC10 GABA,3.63 ± 2.06%
same,Midazolam potentiation (%),[3]; 100 nM MDZ + EC10 GABA,8.25 ± 1.64%
same,Midazolam potentiation (%),[3]; 500 nM MDZ + EC10 GABA,7.92 ± 2.84%
same,Midazolam potentiation (%),[3]; 1000 nM MDZ + EC10 GABA,10.78 ± 2.42%
same,responsiveness to midazolam potentiation,[4],abolished the ability of receptors to respond to midazolam potentiation
same,Midazolam potentiation (%),[4]; 10 nM MDZ + EC10 GABA,8.59 ± 4.39%
same,Midazolam potentiation (%),[4]; 50 nM MDZ + EC10 GABA,7.73 ± 4.67%
same,Midazolam potentiation (%),[4]; 100 nM MDZ + EC10 GABA,8.00 ± 4.85%
same,Midazolam potentiation (%),[4]; 500 nM MDZ + EC10 GABA,5.65 ± 3.99%
same,Midazolam potentiation (%),[4]; 1000 nM MDZ + EC10 GABA,8.17 ± 4.66%
same,Midazolam potentiation (%),α6β2γ2 GABAA receptor; 10 nM MDZ + EC10 GABA,14.66 ± 3.92%
same,Midazolam potentiation (%),α6β2γ2 GABAA receptor; 50 nM MDZ + EC10 GABA,14.55 ± 3.86%
same,Midazolam potentiation (%),α6β2γ2 GABAA receptor; 100 nM MDZ + EC10 GABA,14.58 ± 4.87%
same,Midazolam potentiation (%),α6β2γ2 GABAA receptor; 500 nM MDZ + EC10 GABA,11.15 ± 6.25%
same,Midazolam potentiation (%),α6β2γ2 GABAA receptor; 1000 nM MDZ + EC10 GABA,23.34 ± 4.23%
same,responsiveness to midazolam potentiation,α6β2γ2 GABAA receptor; wildtype α6β2γ2,no notable midazolam potentiation
same,EC50,[5],41.9 ± 6.02 nM
same,Midazolam potentiation (%),"[5]; 10 nM MDZ + EC10 GABA, α6(R100H)",14.39 ± 8.03%
same,Midazolam potentiation (%),"[5]; 50 nM MDZ + EC10 GABA, α6(R100H)",45.91 ± 12.95%
same,Midazolam potentiation (%),"[5]; 100 nM MDZ + EC10 GABA, α6(R100H)",71.31 ± 17.31%
same,Midazolam potentiation (%),"[5]; 500 nM MDZ + EC10 GABA, α6(R100H)",85.96 ± 19.92%
same,Midazolam potentiation (%),"[5]; 1000 nM MDZ + EC10 GABA, α6(R100H)",79.13 ± 19.87%
same,Max potentiation (%),"[5]; α6(R100H), Hill fit, midazolam 10-1000 nM + EC10 GABA",93.27 ± 22.84%
same,Hill coefficient,"[5]; α6(R100H), midazolam Hill fit",2.310 ± 0.56
